Laboratory results reported in US20230365933A1, “COMPOSITIONS AND METHODS FOR INCREASING STEM CELL FUNCTION” (SOCIETE DES PRODUITS NESTLE S.A., priority 2020, published 2023).
Entries after “also recorded” stand apart in the source; their conditions may differ.

Legend:
[1] = system: murine HSCs (LKS CD150+CD48−); experiment: Mitochondrial membrane potential by TMRM staining and flow cytometry in cultured mHSCs; format: cell-based, mouse; conditions: compared to Basal condition; NR 500 uM, Vit B12 (MC) 100 uM; day 3 of culture
Protocol: Flow cytometry analysis was performed on freshly isolated bone marrow (BM) from C57BI6 mice. BM was extracted from crushed femora and tibia. Cell suspension was filtered through a 70 μm cell strainer and erythroid cells were eliminated by incubation with red blood cell lysis buffer (eBioscences). Isolation and stains were performed in ice-cold PBS 1 mM EDTA. Lineage positive cells were then removed with a magnetic lineage depletion kit (BD biosciences). Cell suspensions were then stained with specific antibodies for the stem cell compartment and sorted by FACS (BD FACS Aria III) into 1.5 ml Eppendorf tubes.
The following antibodies were used in this study: rat mAbs against cKit (2B8), Sca1 (D7), CD150 (TC-15-12F12.2), CD48 (HM48-1). The antibodies were purchased from Biolegend, eBiosciences and BD. A mixture of biotinylated mAbs against CD3, CD11b, CD45R/B220, Ly-6G, Ly-6C and TER-119 was used as lineage marker (“lineage cocktail”) and was purchased from BD. DAPI or propidium iodine (PI) staining was used for live/dead cell discrimination.
Murine HSCs were sorted into 1.5 ml Eppendorf tubes and were cultured in Stemline II (SIGMA) supplemented with 100 ng/ml SCF (R&D) and 2 ng/ml Flt3 (R&D). This was defined as the basal condition. Different concentrations as indicated of NR and Vit B12 (MC) were added in specific wells. NR was supplemented every 24 hours.
Mouse HSCs already in culture were incubated at 37° C. for 1 hour with 200 nM tetramethylrhodamine methyl ester (TMRM; Invitrogen) and 100 nM Mitotracker green. Cells were then washed with FACS buffer and analysed by flow cytometry on a BD LSR II.
Freshly FACS sorted mHSCs (LKS CD150+CD48−) were cultured in basal media (Stemline+SCF+FLT3L) supplemented with UroA, NR and MC in specific wells (as indicated). Cells were harvested at day 3 and stained with tetramethylrhodamine methyl ester (TMRM; to measure mitochondria membrane potential) and Mitotracker (to measure mitochondrial mass), and analysed by flow cytometry.

[2] = system: human HSCs; conditions: culture media supplemented with nicotinamide riboside, primary and secondary recipient humanised mice; cited from earlier work

Row | Structure (SMILES) | TMRM fluorescent intensity (Mean Fluorescence Intensity, MFI) [1] | proportion of cells in the TMRM low gate [1] | levels of engraftment [2] | long-term blood production [2]
1 | C/C1=C2/[N-][C@H]([C@H](CC(N)=O)[C@@]2(C)CCC(=O)NC[C@@H](C)OP(=O)([O-])O[C@H]2[C@@H](O)[C@@H](n3cnc4cc(C)c(C)cc43)O[C@@H]2CO)[C@]2(C)N=C(/C(C)=C3N=C(/C=C4N=C1[C@@H](CCC(N)=O)C\4(C)C)[C@@H](CCC(N)=O)[C@]\3(C)CC(N)=O)[C@@H](CCC(N)=O)[C@]2(C)CC(N)=O.[CH3-].[Co] [MC, methylcobalamine] | significantly decreased; also recorded: decreases | significantly increased; also recorded: increases |  | 
2 | NC(=O)c1ccc[n+]([C@@H]2O[C@H](CO)[C@@H](O)[C@H]2O)c1 [NR, Nicotinamide riboside] | significantly decreased; also recorded: decreases | significantly increased; also recorded: increases | significantly higher levels of engraftment | capable of sustaining long-term blood production
